Reference: patent publication US7375220B2, “Method of treating diseases and conditions associated with an altered level of amyloid β peptides and new enolcarboxamide compounds” (Boehringer Ingelheim Vetmedica GmbH, priority 2004, dated 2008)

Tests used:
Aβ42 = details: according to table 3 of WO 01/78721; cited from earlier work

SMILES	melting point [°C]	Aβ42 level (Aβ42)
CN1C(=O)C(C(=O)Nc2ccc(Cl)cc2)c2ccc3c(c2S1(=O)=O)CCCC3 (centres unmarked) [Example 13, 3,4,7,8,9,10-Hexahydro-2-methyl-3-oxo-2H-naphtho[2,1-e]-1,2-thiazine-4-(4-chloro)carboxanilide 1,1-dioxide]	106 to 108	–
O=C(Nc1ccccc1C(F)(F)F)C1C(=O)N(Cc2ccc(F)cc2)S(=O)(=O)c2ccc(Cl)cc21 (centres unmarked) [Example 14, 6-Chloro-3,4-dihydro-2-(4-fluorobenzyl)-3-oxo-2H-1,2-benzothiazine-4-(2-trifluoromethyl)carboxanilide 1,1-dioxide]	198 to 199	–
O=C(Nc1cccc(C(F)(F)F)c1)C1C(=O)N(Cc2ccc(F)cc2)S(=O)(=O)c2ccc(Cl)cc21 (centres unmarked) [Example 15, 6-Chloro-3,4-dihydro-2-(4-fluorobenzyl)-3-oxo-2H-1,2-benzothiazine-4-(3-trifluoromethyl)carboxanilide 1,1-dioxide]	183 to 184	–
Cc1cc(NC(=O)C2=C(O)c3ccccc3S(=O)(=O)N2C)no1 [isoxicam]	–	do not lower or even increase the Aβ42 level
CN1C(C(=O)Nc2ccccn2)=C(O)c2ccccc2S1(=O)=O [piroxicam]	–	do not lower or even increase the Aβ42 level
